Test results taken from patent US20220193039A1, “APPLICATION OF 2,4,5-TRISUBSTITUTED 1,2,4-TRIAZOLONES IN ANTIVIRAL THERAPY” (priority 2020, published 2022).
Like-named read-outs stand apart in the source and are kept apart here.

Tests used:
Format in all cases: cell-based
[1] = test system: CA16; assay: Anti-enterovirus activity, CA16-RD; conditions: RD cells
[2] = test system: influenza virus B/Lee/40; assay: microbe, parasite or virus in culture; conditions: unidentified influenza virus, MDCK, 72 h, read-out: EC50 influenza virus B/Lee/40 (Blee-MDCK)
[3] = test system: enterovirus strain CB3; assay: Anti-enterovirus activity in Vero cells (CellTiter-Glo)
Procedure: (1) Evaluation of anti-enterovirus activity of the drug
(§1) 1) Vero cells (purchased from ATCC, Catalog No.:CCL-81) were inoculated into a 96 wells plate at a concentration of 1×10^4 cells/well, wherein the medium is DMEM (purchased from Gibco, Catalog No.: 11995065) containing 2% FBS (purchased from Gibco, Catalog No.: 16000044), and cultured for 24 hrs at 37° C. in a CO2 incubator.
2) Before the experiment, the cells were wahsed 3 times with PBS (purchased from Gibco, Catalog No.: 10010049), 100 μL of DMEM medium (purchased from Gibco, Catalog No.:11995065) containing 2% FBS (purchased from Gibco, Catalog No.: 16000044) was added. […] Finally, 50 μL of the enterovirus strain CB3 (preserved in Academy of Military Medical Sciences) diluted with DMEM medium containing 2% FBS was added to reach 100 TCID50 for each well. […]
(§2) 3) Buffer and substrate of CellTiter-Glo® Luminescent Cell Viability Assay Kit (purchased from Promega, Catalog No.:G7573) were mixed in dark as the work solution. […] After stablizing the signal in dark for 3 min, chemiluminescence was determined by an enzyme-labeled instrument (purchased from Molecular Devices, SpectraMax M5), the plate reading program was the CellTiter-Glo preset program, and the cell viability was calculated: […]
(§3) wherein A was the reads from the enzyme-labeled instrument.

[4] = test system: EV71; assay: Anti-enterovirus activity, EV71-RD; conditions: Enterovirus A, RD cells
[5] = test system: bunya virus; conditions: preliminary test results; Huh7 cells
[6] = Cytotoxicity test of the drug on MDCK (CellTiter-Glo); conditions: dog, MDCK cells
Procedure: (2) Cytotoxicity test of the drug
as §1, with “MDCK cell” for “Vero cells”, “Catalog:CCL-34) was” for “Catalog No.:CCL-81) were”, “96-well” for “96 wells”, “1.5×10^4 cell/well,” for “1×10^4 cells/well,”, “10%” for “2%”
2) Before the experiment, the cells were wahsed 3 times with PBS (purchased from Gibco, Catalog No.: 10010049), 150 μL of D/F-12 medium (purchased from Gibco, Catalog No.: 11330032) containing 2 μg/mL TPCK (purchased from Sigma, Catalog No.:T1426) was added. […]
as §2, with “After stabilizing” for “After stablizing”, “for 5” for “for 3”, “the cytotoxicity” for “the cell viability”
as §3

[7] = test system: influenza virus A/Hongkong/08/1968; assay: microbe, parasite or virus in culture; conditions: unidentified influenza virus, MDCK, 72 h, read-out: EC50 influenza virus A/Hongkong/08/1968 (HK68-MDCK)
[8] = test system: influenza virus A/PR/8; assay: microbe, parasite or virus in culture; conditions: unidentified influenza virus, MDCK, 72 h, read-out: EC50 influenza virus A/PR/8 (PR8-MDCK)
[9] = test system: zika virus strain SZ-SMGC-01; assay: Anti-zika virus activity in BHK or Vero cells (CellTiter-Glo); conditions: preliminary test results
Procedure: (1) Evaluation of anti-zika virus activity of the drug
1) BHK cells (preserved in Academy of Military Medical Sciences) or Vero cells (preserved in Academy of Military Medical Sciences) were inoculated into a 96 wells plate at a concentration of 5×10^3 cells/well for BHK cells and 1×10^4 cells/well for Vero cells, wherein the medium is DMEM (purchased from Gibco, Catalog No.: 11995065) containing 10% FBS (purchased from Gibco, Catalog No.: 16000044), and cultured for 24 hrs at 37° C. in a CO2 incubator.
2) The culture medium in the 96-well plate was discarded, 100 μL of DMEM medium (purchased from Gibco, Catalog No.:11995065) containing 2% FBS (purchased from Gibco, Catalog No.: 16000044) was added. […] Finally, 50 μL of the zika virus strain SZ-SMGC-01 (preserved in Academy of Military Medical Sciences) diluted with DMEM medium containing 2% FBS was added to reach 100 TCID50 for each well. […]
as §2, with “After stabilizing” for “After stablizing”, “for 2” for “for 3”
as §3

[10] = test system: EVD68; assay: Anti-enterovirus activity, EVD68-RD; conditions: RD cells
[11] = test system: influenza virus A/California/07/2009; assay: microbe, parasite or virus in culture; conditions: unidentified influenza virus, MDCK, 72 h, read-out: EC50 influenza virus A/California/07/2009 (CA07-MDCK)
[12] = test system: SARS-CoV-2 (nCoV-2019BetaCoV/Wuhan/WIV04/2019 strain); assay: microbe, parasite or virus in culture; conditions: for inhibition of viral RNA load in the cells: Vero E6, dose-dependent; for EC50: Severe acute respiratory syndrome coronavirus 2, Vero C1008, Vero E6 cells, viral RNA copy number, read-out: EC50 against SARS-CoV-2
[13] = Cytotoxicity test of drug, CCK-8 kit; conditions: African green monkey; Vero E6 cells; CCK-8; 48 hours
Procedure: (§4) (5) Cytotoxicity test of drug
(§5) The detection of the drug cytotoxicity was performed using CCK-8 kit (Beoytime). Specific steps were as follows:
(§6) 1) 1×104 Vero E6 (ATCC) cells were placed in a 96-well plate and incubated at 37° C. for 8 hours.
(§7) 2) The drug was diluted with DMSO to an appropriate concentration of mother liquor, and then diluted with MEM medium (purchased from Gibco, Catalog No. 10370021) containing 2% FBS (purchased from Gibco, Catalog No. 16000044) to the same concentration as that for the drug treatment. The original medium in the 96-well plate was discarded, 100 μL of drug-containing MEM medium was added to the cells, and three replicate wells were prepared for each concentration. Vehicle control (DMSO and medium were added to the cell wells, without adding drug) and blank control (DMSO and medium were added to the wells, without cells) were set up. After the drug was added, the cells were cultured at 37° C. for 48 hours.
(§8) 3) 20 μL of CCK-8 solution (Beoytime) was added to the well to be tested, mixed gently, without generating bubbles, and continuously incubated at 37° C. for 2 hours. OD450 was read on a microplate reader (purchased from Molecular Devices, Model:SpectraMax M5), and cell viability was calculated:
(§9) Cell activity(%)=(A(drug treatment group)−A(blank control))/(A(vehicle control)−A(blank control))×100%
(§10) wherein A was the reading of the microplate reader.

[14] = test system: Vero E6 cells; assay: Cytotoxicity test of drug, CCK-8 kit; conditions: at below 10 μM, FIG. 1
Procedure: as §4, §5, §6, §7, §8, §9, §10

[15] = test system: Vero cells; assay: Cytotoxicity test of the drug, enterovirus example (CellTiter-Glo); conditions: enterovirus table; cell line not given
[16] = test system: influenza virus A/Zhenxing1109/2010; assay: microbe, parasite or virus in culture; conditions: unidentified influenza virus, MDCK, 72 h, read-out: EC50 influenza virus A/Zhenxing1109/2010 (ZX1109-MDCK)
[17] = test system: CA6; assay: Anti-enterovirus activity, CA6-RD; conditions: RD cells

CCn1c(CO)nn(-c2cc(O[C@@H](C)C(F)(F)F)c(C(=O)Nc3c(F)cccc3Cl)cc2F)c1=O [BAY 2402234] showed an EC50 [1] greater than 100000 nM, an EC50 [2] of 30 nM and an EC50 ([3]; Enterovirus, 120 h, Vero cells, 5 days) of less than 50 nM. The “inhibitory effect on enterovirus” value ([3]; preliminary test results) was “had inhibitory effect”, the EC50 [4] was greater than 100000 nM and the “inhibitory effect on bunya virus” value [5] was “had inhibitory effect”. It also gave a CC50 at 72 h [6] of 270 nM, an EC50 [7] of 7 nM and an EC50 [8] of 10 ± 0.3 nM. For the same molecule, the “inhibitory effect on zika virus” value [9] was “had inhibitory effect”, the EC50 [10] was greater than 100000 nM and the EC50 [11] was 30 ± 9 nM. For the same molecule, the “inhibition of viral RNA load in the cells” value ([12]; 24 h after infection by SARS-CoV-2, FIG. 1(a)) was “can inhibit the viral RNA load”, the “inhibition of viral RNA load in the cells” value ([12]; 48 h after infection by SARS-CoV-2, FIG. 1(b)) was “can inhibit the viral RNA load” and the EC50 ([12]; 24 hours after the infection) was 7 nM. The EC50 ([12]; 48 hours after the infection) was 2.7 nM, the “inhibition of replication of the SARS-CoV-2 virus genome in the infected supernatant” value ([12]; at 10 μM, 3.3 μM, 1.1 μM, 0.3 μM, 0.1 μM and 0.03 μM, FIG. 1) was “could effectively inhibit the replication” and the CC50 at 48 h [13] was 199000 nM. The “effect on cell viability (cytotoxicity)” value [14] was “did not change the cell viability”, the CC50 [15] was greater than 300000 nM and the EC50 [16] was 40 nM. The EC50 [17] was greater than 100000 nM.
